Data taken from the supplement of paper PMC10307832.

Key:
Test in all cases: relative viability (nuclei count vs DMSO), 5 days (fraction); higher = more cells survive
Daporinad + Vorinostat = compound: O=C(/C=C/c1cccnc1)NCCCCC1CCN(C(=O)c2ccccc2)CC1 [Daporinad] + O=C(CCCCCCC(=O)Nc1ccccc1)NO [Vorinostat] (partner 1 µM)
Procedure, shortened: (§1)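 For relative viability, nuclei counts in treated wells were divided by those in vehicle wells. Lung cancer cell lines had been pin-tool dosed in 1536-well plates the day after seeding and cultured for 5 days, then fixed and stained in one step (final 0.05% Triton X-100, 1% formaldehyde, 1 ug/ml Hoechst) and imaged at 4×. Doses were one drug alone or a fixed anchor-drug dose plus five library-drug doses (not always all listed) in √10 steps, and values are duplicate-plate medians.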

R406 + Alpelisib = compound: COc1cc(Nc2ncc(F)c(Nc3ccc4c(n3)NC(=O)C(C)(C)O4)n2)cc(OC)c1OC [R406] + Cc1nc(NC(=O)N2CCC[C@H]2C(N)=O)sc1-c1ccnc(C(C)(C)C(F)(F)F)c1 [Alpelisib] (partner 2 µM)
Procedure, shortened: as §1

R406 + Trametinib = compound: COc1cc(Nc2ncc(F)c(Nc3ccc4c(n3)NC(=O)C(C)(C)O4)n2)cc(OC)c1OC [R406] + CC(=O)Nc1cccc(-n2c(=O)n(C3CC3)c(=O)c3c(Nc4ccc(I)cc4F)n(C)c(=O)c(C)c32)c1 [Trametinib] (partner 0.02 µM)
Procedure, shortened: as §1

R406 + Phenformin = compound: COc1cc(Nc2ncc(F)c(Nc3ccc4c(n3)NC(=O)C(C)(C)O4)n2)cc(OC)c1OC [R406] + N=C(N)NC(=N)NCCc1ccccc1 [Phenformin] (partner 250 µM)
Procedure, shortened: as §1

Cell Line | relative viability (Daporinad + Vorinostat; first compound 0.0005 µM) | relative viability (Daporinad + Vorinostat; first compound 0.001581 µM) | relative viability (Daporinad + Vorinostat; first compound 0.005 µM) | relative viability (Daporinad + Vorinostat; first compound 0.01581 µM) | relative viability (R406 + Alpelisib; first compound 0.08 µM) | relative viability (R406 + Alpelisib; first compound 0.253 µM) | relative viability (R406 + Alpelisib; first compound 0.8 µM) | relative viability (R406 + Alpelisib; first compound 2.53 µM) | relative viability (R406 + Alpelisib; first compound 8 µM) | relative viability (R406 + Trametinib; first compound 0.08 µM) | relative viability (R406 + Trametinib; first compound 0.253 µM) | relative viability (R406 + Trametinib; first compound 0.8 µM) | relative viability (R406 + Trametinib; first compound 2.53 µM) | relative viability (R406 + Trametinib; first compound 8 µM) | relative viability (R406 + Phenformin; first compound 0.08 µM) | relative viability (R406 + Phenformin; first compound 0.253 µM) | relative viability (R406 + Phenformin; first compound 0.8 µM) | relative viability (R406 + Phenformin; first compound 2.53 µM) | relative viability (R406 + Phenformin; first compound 8 µM)
NCI-H1755 | 0.76 | 0.934 | 0.807 | 0.751 | 0.834 | 1.05 | 1.04 | 0.632 | 0.21 | 0.679 | 0.788 | 0.714 | 0.704 | 0.465 | 0.602 | 0.651 | 0.621 | 0.374 | 0.429
NCI-H1793 | 0.542 | 0.508 | 0.809 | 0.969 | 1.08 | 0.691 | 0.921 | 0.434 | 0.32 | 0.448 | 0.537 | 0.411 | 0.422 | 0.16 | 0.312 | 0.477 | 0.546 | 0.192 | 0.156
NCI-H1915 | 0.52 | 0.605 | 0.634 | 0.462 | 1.08 | 1.12 | 1.04 | 1.02 | 1.01 | 0.324 | 0.334 | 0.313 | 0.268 | 0.197 | 0.359 | 0.388 | 0.404 | – | 0.278
NCI-H1944 | 0.57 | 0.524 | 0.647 | 0.613 | 0.758 | 0.84 | 0.757 | 0.652 | 0.512 | 0.401 | 0.453 | 0.364 | 0.385 | 0.319 | 0.207 | 0.227 | 0.218 | 0.15 | 0.16
NCI-H1975 | 0.748 | 0.728 | 0.813 | 0.689 | 0.624 | 0.598 | 0.682 | 0.276 | 0.157 | 0.315 | 0.307 | 0.287 | 0.112 | 0.201 | 0.386 | 0.463 | 0.421 | 0.224 | 0.127
NCI-H1993 | 0.766 | 0.723 | 0.775 | 0.88 | 0.692 | 0.741 | 0.772 | 0.653 | 0.599 | 0.442 | 0.542 | 0.518 | 0.679 | 0.573 | 0.503 | 0.474 | 0.525 | 0.505 | 0.569
NCI-H2009 | 0.745 | 0.79 | 0.708 | 0.347 | 1.18 | 1.22 | 1.24 | 1.05 | 1.05 | 0.275 | 0.275 | 0.323 | 0.213 | 0.136 | 0.47 | 0.501 | 0.487 | 0.333 | 0.185
NCI-H2023 | 0.848 | 0.667 | 0.715 | 0.631 | 0.541 | 0.572 | 0.685 | 0.409 | 0.474 | 0.499 | 0.562 | 0.582 | 0.286 | 0.129 | 0.374 | 0.444 | 0.464 | 0.312 | 0.163
NCI-H2085 | 0.737 | – | 0.92 | 0.966 | 0.971 | 1.02 | 1.05 | 0.829 | 0.612 | 0.591 | 0.634 | 0.545 | 0.498 | 0.226 | 0.763 | 0.811 | 0.769 | 0.316 | 0.495
NCI-H2087 | 0.89 | 0.645 | 0.576 | 0.792 | 0.959 | 1.06 | 1.11 | 1.09 | 0.757 | 0.227 | 0.218 | 0.197 | 0.194 | 0.156 | 0.487 | 0.569 | 0.556 | – | 0.406
NCI-H2126 | 0.862 | 0.836 | 0.948 | 0.91 | 0.721 | 0.851 | 0.75 | 0.723 | 0.625 | 0.609 | 0.535 | 0.511 | 0.519 | 0.522 | 0.527 | 0.554 | 0.516 | 0.529 | 0.359
NCI-H2170 | 0.769 | 0.81 | 0.827 | 0.822 | 0.783 | 0.773 | 0.904 | 0.576 | 0.714 | 0.923 | 0.99 | 1.02 | 0.647 | 0.842 | 0.405 | 0.414 | 0.44 | 0.316 | 0.372
NCI-H2228 | 0.568 | 0.606 | 0.692 | 0.544 | 0.702 | 0.735 | 0.9 | 0.618 | 0.161 | 0.501 | 0.503 | 0.731 | 0.0769 | 0.432 | 0.318 | 0.383 | 0.312 | 0.106 | 0.0936
NCI-H2347 | 0.586 | 0.754 | 0.601 | 0.616 | 0.984 | 1.15 | 1.12 | 0.791 | 0.856 | 0.304 | 0.285 | 0.282 | 0.244 | 0.255 | 0.493 | 0.417 | 0.43 | 0.26 | 0.235
NCI-H2405 | 0.851 | 1.06 | 0.874 | 0.31 | 0.751 | 0.756 | 0.795 | 0.466 | 0.205 | 0.584 | 0.699 | 0.615 | 0.447 | 0.299 | 0.399 | 0.427 | 0.402 | 0.284 | 0.195
NCI-H3122 | 0.938 | 1.14 | 1.03 | 0.898 | 0.729 | 0.807 | 0.739 | 0.695 | 0.678 | 0.234 | 0.218 | 0.206 | 0.241 | 0.234 | 0.396 | 0.39 | 0.396 | 0.365 | 0.369
PC-3 [JPC-3] | 0.604 | 0.818 | 1.06 | 0.921 | 0.988 | 1.15 | 1.13 | 0.902 | 0.699 | 0.801 | 0.738 | 0.81 | 0.669 | 0.475 | 0.466 | 0.515 | 0.526 | 0.413 | 0.377
